# Experiments:
# Experiment in all cases: Bliss interaction score (quartile over a dose matrix) (fitness difference); higher = more antagonism (negative = synergy)
# B. subtilis 168 = tested on: B. subtilis 168
# Procedure, shortened: (§1)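 Quartiles summarise the Bliss score over technical, biological and donor/recipient replicates, where the score is observed minus expected fitness under a product model. Expected fitness uses single-drug values inferred from combination data. Fitness is OD595 at entry into stationary phase over the plate's robust no-drug mean, capped at 1.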
# S. aureus DSM 20231 = tested on: S. aureus DSM 20231
# Procedure, shortened: as §1
# S. pneumoniae D39V = tested on: S. pneumoniae D39V
# Procedure, shortened: as §1
# S. aureus Newman = tested on: S. aureus Newman
# Procedure, shortened: as §1
# 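Further: first quartile when negative (synergy) and third quartile when positive (antagonism).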
SMILES,Bliss interaction score (B. subtilis 168),Bliss interaction score (S. aureus DSM 20231),Bliss interaction score (S. pneumoniae D39V),Bliss interaction score (S. aureus Newman)
CC[C@H]1OC(=O)[C@H](C)[C@@H](O[C@H]2C[C@@](C)(OC)[C@@H](O)[C@H](C)O2)[C@H](C)[C@@H](O[C@@H]2O[C@H](C)C[C@H](N(C)C)[C@H]2O)[C@](C)(O)C[C@@H](C)C(=O)[C@H](C)[C@@H](O)[C@]1(C)O [Erythromycin] + CCC[C@@H]1C[C@@H](C(=O)N[C@@H]([C@H]2O[C@H](SC)[C@H](O)[C@@H](O)[C@H]2O)[C@@H](C)O)N(C)C1 [Lincomycin],0.107,-0.0609,0.0856,-0.1
CC[C@H]1OC(=O)[C@H](C)[C@@H](O[C@H]2C[C@@](C)(OC)[C@@H](O)[C@H](C)O2)[C@H](C)[C@@H](O[C@@H]2O[C@H](C)C[C@H](N(C)C)[C@H]2O)[C@](C)(O)C[C@@H](C)C(=O)[C@H](C)[C@@H](O)[C@]1(C)O [Erythromycin] + CCN(CC)CCOC(=O)c1ccc(N)cc1 [Procaine],-0.0671,-0.0573,-0.048,0.0663
CC[C@H]1OC(=O)[C@H](C)[C@@H](O[C@H]2C[C@@](C)(OC)[C@@H](O)[C@H](C)O2)[C@H](C)[C@@H](O[C@@H]2O[C@H](C)C[C@H](N(C)C)[C@H]2O)[C@](C)(O)C[C@@H](C)C(=O)[C@H](C)[C@@H](O)[C@]1(C)O [Erythromycin] + CC[C@H]1OC(=O)[C@H](C)C(=O)[C@H](C)[C@@H](O[C@@H]2O[C@H](C)C[C@H](N(C)C)[C@H]2O)[C@](C)(OC)C[C@@H](C)C(=O)[C@H](C)[C@H]2N(CCCCn3cnc(-c4cccnc4)c3)C(=O)O[C@]12C [Telithromycin],-0.0361,-0.0237,0.0262,-0.0283
CC[C@H]1OC(=O)[C@H](C)[C@@H](O[C@H]2C[C@@](C)(OC)[C@@H](O)[C@H](C)O2)[C@H](C)[C@@H](O[C@@H]2O[C@H](C)C[C@H](N(C)C)[C@H]2O)[C@](C)(O)C[C@@H](C)C(=O)[C@H](C)[C@@H](O)[C@]1(C)O [Erythromycin] + CN1C2=CC=CC=C2N=C3C1=CC=CC3=O [Pyocyanin],0.0449,-0.0317,-0.0454,-0.051
CC[C@H]1OC(=O)[C@H](C)[C@@H](O[C@H]2C[C@@](C)(OC)[C@@H](O)[C@H](C)O2)[C@H](C)[C@@H](O[C@@H]2O[C@H](C)C[C@H](N(C)C)[C@H]2O)[C@](C)(O)C[C@@H](C)C(=O)[C@H](C)[C@@H](O)[C@]1(C)O [Erythromycin] + CN(C)C(=O)C(CCN1CCC(O)(c2ccc(Cl)cc2)CC1)(c1ccccc1)c1ccccc1 [Loperamide],0.0381,0.0888,0.116,-0.039
CC[C@H]1OC(=O)[C@H](C)[C@@H](O[C@H]2C[C@@](C)(OC)[C@@H](O)[C@H](C)O2)[C@H](C)[C@@H](O[C@@H]2O[C@H](C)C[C@H](N(C)C)[C@H]2O)[C@](C)(O)C[C@@H](C)C(=O)[C@H](C)[C@@H](O)[C@]1(C)O [Erythromycin] + CN(C)c1cc(NC(=O)CNC(C)(C)C)c(O)c2c1C[C@H]1C[C@H]3[C@H](N(C)C)C(O)=C(C(N)=O)C(=O)[C@@]3(O)C(O)=C1C2=O [Tigecycline],-0.0505,-0.0257,-0.0975,-0.0253
CC[C@H]1OC(=O)[C@H](C)[C@@H](O[C@H]2C[C@@](C)(OC)[C@@H](O)[C@H](C)O2)[C@H](C)[C@@H](O[C@@H]2O[C@H](C)C[C@H](N(C)C)[C@H]2O)[C@](C)(O)C[C@@H](C)C(=O)[C@H](C)[C@@H](O)[C@]1(C)O [Erythromycin] + CN(N=O)C(=O)N[C@@H](C=O)[C@@H](O)[C@H](O)[C@H](O)CO [Streptozotocin],-0.0271,-0.0271,-0.0459,-0.0533
CC[C@H]1OC(=O)[C@H](C)[C@@H](O[C@H]2C[C@@](C)(OC)[C@@H](O)[C@H](C)O2)[C@H](C)[C@@H](O[C@@H]2O[C@H](C)C[C@H](N(C)C)[C@H]2O)[C@](C)(O)C[C@@H](C)C(=O)[C@H](C)[C@@H](O)[C@]1(C)O [Erythromycin] + CN[C@@H]1[C@H](O)[C@H](NC)[C@H]2O[C@@]3(O)C(=O)C[C@@H](C)O[C@H]3O[C@@H]2[C@H]1O [Spectinomycin],-0.093,-0.0696,-0.0547,-0.172
CC[C@H]1OC(=O)[C@H](C)[C@@H](O[C@H]2C[C@@](C)(OC)[C@@H](O)[C@H](C)O2)[C@H](C)[C@@H](O[C@@H]2O[C@H](C)C[C@H](N(C)C)[C@H]2O)[C@](C)(O)C[C@@H](C)C(=O)[C@H](C)[C@@H](O)[C@]1(C)O [Erythromycin] + CN[C@@H]1[C@H](O[C@H]2[C@H](O[C@H]3[C@H](O)[C@@H](O)[C@H](N=C(N)N)[C@@H](O)[C@@H]3N=C(N)N)O[C@@H](C)[C@]2(O)C=O)O[C@@H](CO)[C@H](O)[C@H]1O [Streptomycin],0.0844,0.0256,-0.0481,-0.0695
CC[C@H]1OC(=O)[C@H](C)[C@@H](O[C@H]2C[C@@](C)(OC)[C@@H](O)[C@H](C)O2)[C@H](C)[C@@H](O[C@@H]2O[C@H](C)C[C@H](N(C)C)[C@H]2O)[C@](C)(O)C[C@@H](C)C(=O)[C@H](C)[C@@H](O)[C@]1(C)O [Erythromycin] + CN[C@H](CC(C)C)C(=O)N[C@H]1C(=O)N[C@@H](CC(N)=O)C(=O)N[C@H]2C(=O)N[C@H]3C(=O)N[C@H](C(=O)N[C@H](C(=O)O)c4cc(O)cc(O)c4-c4cc3ccc4O)[C@H](O)c3ccc(c(Cl)c3)Oc3cc2cc(c3O[C@@H]2O[C@H](CO)[C@@H](O)[C@H](O)[C@H]2O[C@H]2C[C@](C)(N)[C@H](O)[C@H](C)O2)Oc2ccc(cc2Cl)[C@H]1O [Vancomycin],0.035,0.0298,0.0403,-0.0375
CC[C@H]1OC(=O)[C@H](C)[C@@H](O[C@H]2C[C@@](C)(OC)[C@@H](O)[C@H](C)O2)[C@H](C)[C@@H](O[C@@H]2O[C@H](C)C[C@H](N(C)C)[C@H]2O)[C@](C)(O)C[C@@H](C)C(=O)[C@H](C)[C@@H](O)[C@]1(C)O [Erythromycin] + CN[C@H](CC(C)C)C(=O)N[C@H]1C(=O)N[C@@H](CC(N)=O)C(=O)N[C@H]2C(=O)N[C@H]3C(=O)N[C@H](C(=O)N[C@H](C(=O)O)c4cc(O)cc(O)c4-c4cc3ccc4O)[C@H](O[C@H]3C[C@](C)(N)[C@@H](O)[C@H](C)O3)c3ccc(c(Cl)c3)Oc3cc2cc(c3O[C@@H]2O[C@H](CO)[C@@H](O)[C@H](O)[C@H]2O[C@H]2C[C@](C)(NCc3ccc(-c4ccc(Cl)cc4)cc3)[C@@H](O)[C@H](C)O2)Oc2ccc(cc2Cl)[C@H]1O [Oritavancin],0.0299,-0.023,0.046,0.0605
CC[C@H]1OC(=O)[C@H](C)[C@@H](O[C@H]2C[C@@](C)(OC)[C@@H](O)[C@H](C)O2)[C@H](C)[C@@H](O[C@@H]2O[C@H](C)C[C@H](N(C)C)[C@H]2O)[C@](C)(O)C[C@@H](C)C(=O)[C@H](C)[C@@H](O)[C@]1(C)O [Erythromycin] + CO[C@@H]1[C@@H](OC(N)=O)[C@@H](O)[C@H](Oc2ccc3c(O)c(NC(=O)c4ccc(O)c(CC=C(C)C)c4)c(=O)oc3c2C)OC1(C)C [Novobiocin],-0.0636,-0.0443,-0.114,0.0699
CC[C@H]1OC(=O)[C@H](C)[C@@H](O[C@H]2C[C@@](C)(OC)[C@@H](O)[C@H](C)O2)[C@H](C)[C@@H](O[C@@H]2O[C@H](C)C[C@H](N(C)C)[C@H]2O)[C@](C)(O)C[C@@H](C)C(=O)[C@H](C)[C@@H](O)[C@]1(C)O [Erythromycin] + CO[C@@]12[C@H](COC(N)=O)C3=C(C(=O)C(C)=C(N)C3=O)N1C[C@@H]1N[C@@H]12 [MitomycinC],0.0799,-0.048,-0.0897,0.0538
CC[C@H]1OC(=O)[C@H](C)[C@@H](O[C@H]2C[C@@](C)(OC)[C@@H](O)[C@H](C)O2)[C@H](C)[C@@H](O[C@@H]2O[C@H](C)C[C@H](N(C)C)[C@H]2O)[C@](C)(O)C[C@@H](C)C(=O)[C@H](C)[C@@H](O)[C@]1(C)O [Erythromycin] + CO[C@H]1/C=C/O[C@@]2(C)Oc3c(C)c(O)c4c(O)c(c(/C=N/N5CCN(C)CC5)c(O)c4c3C2=O)NC(=O)/C(C)=C\C=C\[C@H](C)[C@H](O)[C@@H](C)[C@@H](O)[C@@H](C)[C@H](OC(C)=O)[C@@H]1C [Rifampicin],0.116,0.0363,0.0763,0.0582
CC[C@H]1OC(=O)[C@H](C)[C@@H](O[C@H]2C[C@@](C)(OC)[C@@H](O)[C@H](C)O2)[C@H](C)[C@@H](O[C@@H]2O[C@H](C)C[C@H](N(C)C)[C@H]2O)[C@](C)(O)C[C@@H](C)C(=O)[C@H](C)[C@@H](O)[C@]1(C)O [Erythromycin] + COc1c(N2C[C@@H]3CCCN[C@@H]3C2)c(F)cc2c(=O)c(C(=O)O)cn(C3CC3)c12 [Moxifloxacin],0.0269,0.0532,0.101,0.0486
CC[C@H]1OC(=O)[C@H](C)[C@@H](O[C@H]2C[C@@](C)(OC)[C@@H](O)[C@H](C)O2)[C@H](C)[C@@H](O[C@@H]2O[C@H](C)C[C@H](N(C)C)[C@H]2O)[C@](C)(O)C[C@@H](C)C(=O)[C@H](C)[C@@H](O)[C@]1(C)O [Erythromycin] + COc1cc(Cc2cnc(N)nc2N)cc(OC)c1OC [Trimethoprim],-0.155,0.0179,-0.0464,0.0715
CC[C@H]1OC(=O)[C@H](C)[C@@H](O[C@H]2C[C@@](C)(OC)[C@@H](O)[C@H](C)O2)[C@H](C)[C@@H](O[C@@H]2O[C@H](C)C[C@H](N(C)C)[C@H]2O)[C@](C)(O)C[C@@H](C)C(=O)[C@H](C)[C@@H](O)[C@]1(C)O [Erythromycin] + COc1ccc(C[C@H](N)C(=O)N[C@H]2[C@@H](O)[C@H](n3cnc4c(N(C)C)ncnc43)O[C@@H]2CO)cc1 [Puromycin],-0.0531,-0.0389,-0.0449,-0.0378
CC[C@H]1OC(=O)[C@H](C)[C@@H](O[C@H]2C[C@@](C)(OC)[C@@H](O)[C@H](C)O2)[C@H](C)[C@@H](O[C@@H]2O[C@H](C)C[C@H](N(C)C)[C@H]2O)[C@](C)(O)C[C@@H](C)C(=O)[C@H](C)[C@@H](O)[C@]1(C)O [Erythromycin] + C[C@@H]1O[C@@H]1P(=O)(O)O [Fosfomycin],0.116,-0.0365,0.0627,-0.073
CC[C@H]1OC(=O)[C@H](C)[C@@H](O[C@H]2C[C@@](C)(OC)[C@@H](O)[C@H](C)O2)[C@H](C)[C@@H](O[C@@H]2O[C@H](C)C[C@H](N(C)C)[C@H]2O)[C@](C)(O)C[C@@H](C)C(=O)[C@H](C)[C@@H](O)[C@]1(C)O [Erythromycin] + C[C@@H](O)[C@H]1C(=O)N2C(C(=O)O)=C(SCCNC=N)C[C@H]12 [Imipenem],0.078,0.0185,-0.0344,0.0221
CC[C@H]1OC(=O)[C@H](C)[C@@H](O[C@H]2C[C@@](C)(OC)[C@@H](O)[C@H](C)O2)[C@H](C)[C@@H](O[C@@H]2O[C@H](C)C[C@H](N(C)C)[C@H]2O)[C@](C)(O)C[C@@H](C)C(=O)[C@H](C)[C@@H](O)[C@]1(C)O [Erythromycin] + C[C@H]1COc2c(N3CCN(C)CC3)c(F)cc3c(=O)c(C(=O)O)cn1c23 [Levofloxacin],0.041,0.0327,0.0979,0.0478

# Reference: the supplement of paper PMC10627819
